The structures appear in SMILES notation. Where only a bound is given, the exact number is not on record here.

In test [1] the target is T1, Lysine-specific demethylase 4C (Homo sapiens, UniProt Q9H3R0).
T1 sequence (Q9H3R0 whole entry): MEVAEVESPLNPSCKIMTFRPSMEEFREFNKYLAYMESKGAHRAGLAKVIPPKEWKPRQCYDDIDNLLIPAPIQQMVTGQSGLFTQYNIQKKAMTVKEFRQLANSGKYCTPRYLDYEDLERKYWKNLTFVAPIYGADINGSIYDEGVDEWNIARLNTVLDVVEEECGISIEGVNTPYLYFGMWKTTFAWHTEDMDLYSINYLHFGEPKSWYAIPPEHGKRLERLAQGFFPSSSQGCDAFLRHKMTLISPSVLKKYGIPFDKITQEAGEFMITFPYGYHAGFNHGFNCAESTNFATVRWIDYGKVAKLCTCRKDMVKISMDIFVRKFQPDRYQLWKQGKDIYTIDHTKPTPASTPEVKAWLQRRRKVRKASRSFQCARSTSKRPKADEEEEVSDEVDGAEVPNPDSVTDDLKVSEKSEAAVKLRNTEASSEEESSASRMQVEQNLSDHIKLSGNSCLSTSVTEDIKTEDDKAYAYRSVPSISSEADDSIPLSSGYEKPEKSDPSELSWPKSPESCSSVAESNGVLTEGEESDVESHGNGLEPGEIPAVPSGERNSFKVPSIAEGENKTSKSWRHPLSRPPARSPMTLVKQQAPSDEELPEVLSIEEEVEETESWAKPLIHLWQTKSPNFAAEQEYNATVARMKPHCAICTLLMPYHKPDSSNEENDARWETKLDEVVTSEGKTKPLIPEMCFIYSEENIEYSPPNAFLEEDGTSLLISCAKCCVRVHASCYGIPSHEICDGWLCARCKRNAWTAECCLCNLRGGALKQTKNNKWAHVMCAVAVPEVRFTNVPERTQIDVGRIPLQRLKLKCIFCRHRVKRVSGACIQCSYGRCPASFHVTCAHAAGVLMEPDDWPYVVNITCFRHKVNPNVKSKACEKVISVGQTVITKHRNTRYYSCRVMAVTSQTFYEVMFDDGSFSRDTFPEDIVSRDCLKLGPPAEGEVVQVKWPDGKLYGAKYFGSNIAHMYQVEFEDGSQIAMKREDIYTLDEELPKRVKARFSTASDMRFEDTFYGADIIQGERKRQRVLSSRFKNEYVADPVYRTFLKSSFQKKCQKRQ

Test [2] concerns the target Lysine-specific demethylase 5C (Homo sapiens, UniProt P41229). The test is described as follows: biochemical.
Test [3] has as its target Lysine-specific demethylase 3B (Homo sapiens, UniProt Q7LBC6). The test can be described thus: biochemical.
Test [4] has as its target T2, Lysine-specific demethylase 4A (Homo sapiens, UniProt O75164).
T2 sequence (O75164 whole entry): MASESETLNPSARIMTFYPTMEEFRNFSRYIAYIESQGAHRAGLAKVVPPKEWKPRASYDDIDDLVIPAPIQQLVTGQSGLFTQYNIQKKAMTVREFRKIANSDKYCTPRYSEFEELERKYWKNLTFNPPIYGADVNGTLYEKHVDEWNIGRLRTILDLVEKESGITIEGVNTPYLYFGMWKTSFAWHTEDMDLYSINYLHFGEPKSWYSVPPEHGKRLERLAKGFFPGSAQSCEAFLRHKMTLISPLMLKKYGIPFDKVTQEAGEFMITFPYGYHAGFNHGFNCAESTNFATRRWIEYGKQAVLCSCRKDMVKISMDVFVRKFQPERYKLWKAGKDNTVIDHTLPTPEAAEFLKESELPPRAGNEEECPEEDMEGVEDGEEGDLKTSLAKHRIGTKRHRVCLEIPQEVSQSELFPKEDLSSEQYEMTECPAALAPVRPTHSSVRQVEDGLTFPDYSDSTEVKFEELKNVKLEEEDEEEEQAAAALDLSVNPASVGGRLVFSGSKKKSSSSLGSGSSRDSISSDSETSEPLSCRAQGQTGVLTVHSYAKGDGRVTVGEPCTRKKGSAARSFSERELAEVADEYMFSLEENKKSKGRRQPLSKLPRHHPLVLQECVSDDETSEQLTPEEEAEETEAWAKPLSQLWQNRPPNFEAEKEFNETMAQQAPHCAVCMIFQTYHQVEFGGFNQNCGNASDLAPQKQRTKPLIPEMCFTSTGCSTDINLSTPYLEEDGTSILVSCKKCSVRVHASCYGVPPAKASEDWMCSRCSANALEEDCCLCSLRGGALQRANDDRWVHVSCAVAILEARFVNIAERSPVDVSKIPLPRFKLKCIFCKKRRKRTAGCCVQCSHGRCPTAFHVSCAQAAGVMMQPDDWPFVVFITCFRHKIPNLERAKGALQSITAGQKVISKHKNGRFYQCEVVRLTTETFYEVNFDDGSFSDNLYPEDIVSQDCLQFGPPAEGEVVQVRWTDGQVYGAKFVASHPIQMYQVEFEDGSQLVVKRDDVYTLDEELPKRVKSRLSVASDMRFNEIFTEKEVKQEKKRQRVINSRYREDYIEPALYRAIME
The test is described as follows: Inhibition of recombinant human N-terminal His-tagged KDM4A (1 to 350 residues) expressed in Escherichia coli using methylated biotin-H3K9 substrate preincubated for 10 mins followed by substrate addition measured after 10 mins by AlphaLisa assay.

The target of test [5] is Lysine-specific demethylase 6A (Homo sapiens, UniProt O15550).
Test [6] has as its target Lysine-specific demethylase 5B (Homo sapiens, UniProt Q9UGL1).

Sequence of Lysine-specific demethylase 5B (Q9UGL1 whole entry): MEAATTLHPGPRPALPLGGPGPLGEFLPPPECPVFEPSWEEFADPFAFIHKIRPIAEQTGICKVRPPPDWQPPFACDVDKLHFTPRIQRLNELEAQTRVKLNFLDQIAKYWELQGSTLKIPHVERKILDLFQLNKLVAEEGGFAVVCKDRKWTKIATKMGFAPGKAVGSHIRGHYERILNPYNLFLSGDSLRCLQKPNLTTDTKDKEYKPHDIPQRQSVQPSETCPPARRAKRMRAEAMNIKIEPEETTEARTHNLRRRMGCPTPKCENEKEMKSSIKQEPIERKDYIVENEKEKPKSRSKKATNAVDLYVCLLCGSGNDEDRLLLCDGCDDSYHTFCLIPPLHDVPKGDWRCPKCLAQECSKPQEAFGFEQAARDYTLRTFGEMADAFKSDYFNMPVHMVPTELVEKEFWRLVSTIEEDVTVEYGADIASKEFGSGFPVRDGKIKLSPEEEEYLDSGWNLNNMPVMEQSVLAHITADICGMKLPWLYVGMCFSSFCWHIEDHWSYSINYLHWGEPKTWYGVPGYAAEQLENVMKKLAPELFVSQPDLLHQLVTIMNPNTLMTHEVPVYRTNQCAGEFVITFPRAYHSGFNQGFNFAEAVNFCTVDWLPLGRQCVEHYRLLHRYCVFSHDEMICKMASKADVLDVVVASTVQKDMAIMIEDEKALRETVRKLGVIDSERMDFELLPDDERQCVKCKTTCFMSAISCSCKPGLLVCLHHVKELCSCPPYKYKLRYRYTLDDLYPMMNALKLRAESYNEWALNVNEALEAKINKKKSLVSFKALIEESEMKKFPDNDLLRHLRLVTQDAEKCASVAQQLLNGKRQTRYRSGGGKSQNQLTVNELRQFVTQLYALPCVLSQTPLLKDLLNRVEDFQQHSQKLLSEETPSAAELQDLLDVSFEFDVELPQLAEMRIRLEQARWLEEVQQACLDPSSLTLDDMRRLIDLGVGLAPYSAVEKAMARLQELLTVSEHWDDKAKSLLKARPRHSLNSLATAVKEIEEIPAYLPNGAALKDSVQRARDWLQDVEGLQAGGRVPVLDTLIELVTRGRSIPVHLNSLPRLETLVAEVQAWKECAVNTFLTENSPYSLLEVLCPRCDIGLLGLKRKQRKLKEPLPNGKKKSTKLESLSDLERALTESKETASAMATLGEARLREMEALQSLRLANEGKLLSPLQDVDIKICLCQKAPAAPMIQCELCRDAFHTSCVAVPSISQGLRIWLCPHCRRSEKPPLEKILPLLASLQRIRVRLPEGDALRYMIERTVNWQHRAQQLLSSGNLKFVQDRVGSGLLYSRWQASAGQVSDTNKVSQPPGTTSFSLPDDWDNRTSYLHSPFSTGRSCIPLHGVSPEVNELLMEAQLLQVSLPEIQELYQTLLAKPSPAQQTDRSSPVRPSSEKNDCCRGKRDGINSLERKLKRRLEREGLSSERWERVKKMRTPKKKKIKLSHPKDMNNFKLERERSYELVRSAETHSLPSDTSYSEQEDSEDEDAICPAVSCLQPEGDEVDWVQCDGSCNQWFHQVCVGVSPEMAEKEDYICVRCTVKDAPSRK
Sequence of Lysine-specific demethylase 6A (O15550 whole entry): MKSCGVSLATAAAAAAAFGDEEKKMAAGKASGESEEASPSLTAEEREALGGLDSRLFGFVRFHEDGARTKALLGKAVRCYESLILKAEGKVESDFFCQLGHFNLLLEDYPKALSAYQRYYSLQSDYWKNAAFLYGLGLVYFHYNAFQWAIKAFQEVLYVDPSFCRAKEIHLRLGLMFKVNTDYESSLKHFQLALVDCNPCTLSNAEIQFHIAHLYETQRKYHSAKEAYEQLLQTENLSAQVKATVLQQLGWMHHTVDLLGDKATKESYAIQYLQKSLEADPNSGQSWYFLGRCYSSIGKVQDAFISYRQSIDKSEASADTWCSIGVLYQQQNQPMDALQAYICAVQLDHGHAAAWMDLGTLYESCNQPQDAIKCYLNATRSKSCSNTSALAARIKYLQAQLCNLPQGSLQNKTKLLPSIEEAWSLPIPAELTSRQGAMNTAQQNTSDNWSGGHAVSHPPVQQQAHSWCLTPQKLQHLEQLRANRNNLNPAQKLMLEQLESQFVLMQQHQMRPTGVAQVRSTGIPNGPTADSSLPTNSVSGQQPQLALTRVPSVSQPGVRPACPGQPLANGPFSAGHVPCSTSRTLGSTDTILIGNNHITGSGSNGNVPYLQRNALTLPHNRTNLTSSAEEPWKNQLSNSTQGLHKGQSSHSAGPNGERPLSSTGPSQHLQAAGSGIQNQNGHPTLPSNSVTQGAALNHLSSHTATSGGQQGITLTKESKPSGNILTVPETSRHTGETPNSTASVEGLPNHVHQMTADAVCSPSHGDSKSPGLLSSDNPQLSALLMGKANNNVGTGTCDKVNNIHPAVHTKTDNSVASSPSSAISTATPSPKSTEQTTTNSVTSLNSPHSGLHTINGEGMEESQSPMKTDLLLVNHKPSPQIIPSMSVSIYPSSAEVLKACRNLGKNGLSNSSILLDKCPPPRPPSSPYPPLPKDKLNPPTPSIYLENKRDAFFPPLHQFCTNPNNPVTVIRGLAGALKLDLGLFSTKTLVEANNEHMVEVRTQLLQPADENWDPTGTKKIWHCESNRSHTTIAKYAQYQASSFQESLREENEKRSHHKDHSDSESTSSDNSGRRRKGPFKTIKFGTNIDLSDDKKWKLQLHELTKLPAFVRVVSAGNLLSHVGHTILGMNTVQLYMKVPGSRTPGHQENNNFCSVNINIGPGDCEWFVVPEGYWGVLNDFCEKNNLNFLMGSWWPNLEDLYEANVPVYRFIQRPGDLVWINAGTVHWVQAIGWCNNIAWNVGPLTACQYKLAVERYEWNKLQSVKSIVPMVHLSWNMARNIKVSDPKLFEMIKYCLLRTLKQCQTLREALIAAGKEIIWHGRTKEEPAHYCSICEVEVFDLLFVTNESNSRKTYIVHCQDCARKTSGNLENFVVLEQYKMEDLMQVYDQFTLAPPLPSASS
Sequence of Lysine-specific demethylase 5C (P41229 whole entry): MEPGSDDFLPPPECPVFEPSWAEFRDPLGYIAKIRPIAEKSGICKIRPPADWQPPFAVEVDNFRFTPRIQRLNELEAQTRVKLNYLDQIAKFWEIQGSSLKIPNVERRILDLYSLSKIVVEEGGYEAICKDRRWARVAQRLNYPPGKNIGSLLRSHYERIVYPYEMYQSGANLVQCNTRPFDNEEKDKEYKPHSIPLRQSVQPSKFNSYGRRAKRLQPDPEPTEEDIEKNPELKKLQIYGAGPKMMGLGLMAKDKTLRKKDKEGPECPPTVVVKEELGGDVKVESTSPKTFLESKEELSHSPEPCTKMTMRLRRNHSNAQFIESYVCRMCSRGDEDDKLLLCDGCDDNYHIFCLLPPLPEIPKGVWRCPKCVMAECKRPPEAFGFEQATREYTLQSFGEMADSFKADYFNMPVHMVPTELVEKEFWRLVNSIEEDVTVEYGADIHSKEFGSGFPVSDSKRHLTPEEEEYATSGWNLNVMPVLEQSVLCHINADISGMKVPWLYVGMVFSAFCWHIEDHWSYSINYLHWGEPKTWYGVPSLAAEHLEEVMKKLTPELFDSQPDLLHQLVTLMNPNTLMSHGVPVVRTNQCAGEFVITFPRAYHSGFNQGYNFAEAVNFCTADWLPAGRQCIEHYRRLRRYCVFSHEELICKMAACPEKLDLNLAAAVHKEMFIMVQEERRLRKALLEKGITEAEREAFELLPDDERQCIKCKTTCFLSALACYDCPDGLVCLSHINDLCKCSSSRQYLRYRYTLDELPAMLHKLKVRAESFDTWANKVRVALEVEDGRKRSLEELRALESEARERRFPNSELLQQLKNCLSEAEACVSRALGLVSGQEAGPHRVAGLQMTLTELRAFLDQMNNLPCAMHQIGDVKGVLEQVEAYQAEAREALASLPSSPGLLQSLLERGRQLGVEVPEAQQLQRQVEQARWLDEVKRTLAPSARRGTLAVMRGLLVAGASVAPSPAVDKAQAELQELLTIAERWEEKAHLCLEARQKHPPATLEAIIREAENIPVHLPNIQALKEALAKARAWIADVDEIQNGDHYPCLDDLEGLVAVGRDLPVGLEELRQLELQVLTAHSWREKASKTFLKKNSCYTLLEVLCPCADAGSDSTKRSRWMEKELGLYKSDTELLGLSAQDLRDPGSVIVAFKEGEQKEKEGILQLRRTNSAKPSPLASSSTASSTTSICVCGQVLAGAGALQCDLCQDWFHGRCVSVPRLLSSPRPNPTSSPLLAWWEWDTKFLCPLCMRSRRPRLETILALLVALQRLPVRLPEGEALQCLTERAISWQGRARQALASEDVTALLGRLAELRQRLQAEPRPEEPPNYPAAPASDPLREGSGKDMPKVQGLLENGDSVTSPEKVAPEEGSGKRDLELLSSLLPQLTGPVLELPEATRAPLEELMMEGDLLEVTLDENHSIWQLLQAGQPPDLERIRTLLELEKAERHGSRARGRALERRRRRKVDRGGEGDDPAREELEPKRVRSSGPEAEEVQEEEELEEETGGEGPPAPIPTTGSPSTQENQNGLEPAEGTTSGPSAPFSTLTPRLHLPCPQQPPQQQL

For `CCN(CCN(C)C)C(=O)CNCc1cc(CNC(=O)C(F)(F)F)ccn1`, the IC50 in test [1] is greater than 2500 nM; in test [2], 250 nM; in test [3], greater than 2500 nM; in test [4], greater than 2500 nM; in test [5], greater than 2500 nM; in test [6] it was 250 nM.
Consider `CCN(CCN(C)C)C(=O)CNCc1cc(C(=O)O)ccn1`, for which the half-inhibitory concentration (IC50) in test [1] was less than 100 nM; in test [2] it was less than 100 nM; in test [3] it was greater than 1000 nM; in test [4], less than 100 nM; in test [5], greater than 1000 nM; in test [6], less than 100 nM.
Regarding `CCN(CC)CCCCNCc1cc(C=O)ccn1`, the IC50 in test [1] was greater than 2500 nM; in test [2] it was less than 250 nM; in test [3] it was greater than 2500 nM; in test [4], greater than 2500 nM; in test [5], greater than 2500 nM; in test [6] it was less than 250 nM.

The values are drawn from ChEMBL document CHEMBL3784917, “Recent Progress in Histone Demethylase Inhibitors” (J Med Chem, 2016).
